According to US20250289827A1, “MORPHIC FORMS OF A MUTANT BRAF DEGRADER AND METHODS OF MANUFACTURE THEREOF” (C4 THERAPEUTICS, INC., priority 2022, published 2025):
Where two headings read alike, the source gives them in different places.

What was measured:
[1] = Plasma and tumor pharmacokinetics in A2058 xenograft mice; format: in vivo, BALB/c nude mice; conditions: Compound 1 10 mg/kg; for concentration at 1 h / concentration at 6 h / concentration at 12 h / concentration at 24 h / concentration at 48 h: BALB/c nude, mouse, oral, single dose p.o., Encorafenib 35 mg/kg, Dabrafenib 100 mg/kg; for Time of peak concentration in plasma / Time of peak concentration in tumor: single oral dose, encorafenib 35 mg/kg, dabrafenib 100 mg/kg
Protocol: For the PKPD study, agents were administered to BALB/c nude mice bearing A2058 human melanoma xenografts. Compound 1, encorafenib and dabrafenib were dosed once orally on day 1. Compound 1 was dosed at 10 mg/kg, encorafenib was dosed at 35 mg/kg and dabrafenib was dosed at 100 mg/kg.
To collect non-termination plasma samples, blood samples were collected into the 1.5 mL Eppendorf tubes containing 3 μL of 0.5 M K2 ethylenediaminetetraacetic acid (EDTA-K2). Anticoagulant blood samples were centrifuged at 2500×g at 4° C. for fifteen minutes.
To collect the termination plasma samples, mice were euthanized at predetermined time points after the treatment. Blood samples from the mice were collected into the 1.5 mL Eppendorf tubes containing […] of 0.5 M K2 ethylenediaminetetraacetic acid (EDTA-K2). Anticoagulant blood samples were centrifuged at 2500×g at 4° C. for fifteen minutes.
Tumor samples were collected at predicted time for pharmacokinetic (PK), Western Blot (WB) and formalin-fixed paraffin-embedded (FFPE) sample analysis. The tumor was dissected out, and the tumor sample was split into four parts, from which the 1st part was used for PK analysis, the 2nd part was used for WB analysis, the third part was used for FFPE analysis, and the 4th part was used as a backup for the study. PK and WB samples were transferred into pre-labeled tubes. Samples in tubes were snap-frozen in liquid nitrogen within two minutes after dissection. The samples were stored at −80° C. until analysis. Tumor samples for FFPE analysis were collected and fixed in formalin for twenty-four to forty-eight hours, after which FFPE blocks were prepared for analysis.
The harvested plasma and tumor samples were processed for pharmacokinetics analysis by LC-MS/MS with a concentration range of 0.200˜200 ng/mL for encorafenib, Dabrafenib and Compound 1 in tumor homogenate, 1.00˜1,000 ng/mL for Dabrafenib in plasma and 10.0˜10,000 ng/mL for Compound 1 and encorafenib in plasma.

[2] = test system: patient-derived xenograft (PDX) of non-small cell lung carcinoma (NSCLC) with BRAF V600E mutation; experiment: Efficacy in BRAF V600E NSCLC PDX model; conditions: for Tumor response: day 28
[3] = test system: BRAF V600E mutant A375-luciferase intracranial model; experiment: Efficacy in A375-luciferase intracranial model; conditions: for Survival rate: as of day 75
Protocol: For the efficacy study, agents were tested in A375 human melanoma cancer cell derived xenografts (CDX). […] The A375 tumor cells were maintained in vitro in DMEM medium supplemented with 10% fetal bovine serum and 1% Penicillin-Streptomycin at 37° C. in an atmosphere of 5% CO2 in air. The tumor cells were routinely subcultured twice weekly. The cells growing in an exponential growth phase were harvested and counted for tumor inoculation.
For this CNS study, A375 cells with a luciferase tag for tracking tumor cell signal, were injected intracranially into 6-8 week old female BALB/c nude mice. […] The mice were anaesthetized, restrained, and sterilized prior to surgery. […] A 2 mm hole was created to the right of the anterior fontanel and 0.5 mm above the coronal on the skull with a cranial drill. Cell suspensions in 20% Matrigel were mixed and aspirated into the injector carefully to avoid bubbles and wiped to avoid extracranial tumorigenesis. The needle was inserted vertically into the cranial hole and the cell mixture was slowly injected for two minutes and held for another minute to decrease the drainage of the cell suspension. The wound was closed, and a subcutaneous injection of 5 mg/kg Meloxicam was given to relieve the pain and continued for three days. The mice were monitored closely until they woke up after the surgery. After inoculation, the animals were checked daily for morbidity and mortality.
The administration of the test agents began three days after inoculation. […] Measurements for the presence of the A375 luciferase signal within the CNS were done with IVIS Lumina III machine. Images were collected twice weekly to follow the growth of the models. The tumor-bearing mice were weighed and intraperitoneally administered luciferin (Perkin Elmer Inc-122799) at a dosage of 150 mg/kg. After ten minutes, mice were pre-anesthetized with the mixture gas of oxygen and isoflurane. The bioluminescence value at fifteen minutes post luciferin injection was recorded as the final value and plotted. The endpoint for individual mice was reached when the mouse body weight decreased by 20% when compared to their starting weight.
The luciferase signal for the mice removed from study were not carried forward, so a sudden drop in luciferase signal over time is due to mice with a heavy tumor burden being terminated and their high luciferase signal not being carried forward.

[4] = plasma, read-out: Concentration in Plasma ± SEM
[5] = tumor, read-out: Concentration in Tumor ± SEM

Row | SMILES | concentration at 1 h [1, 4] | concentration at 6 h [1, 4] | concentration at 12 h [1, 4] | concentration at 24 h [1, 4] | concentration at 6 h [1, 5] | concentration at 12 h [1, 5] | concentration at 24 h [1, 5] | concentration at 48 h [1, 5] | Time of peak concentration in plasma [1] | Time of peak concentration in tumor [1] | Tumor response ([2]; 10 mg/kg PO BID plus trametinib 0.1 mg/kg PO QD) | Tumor response ([2]; 10 mg/kg PO BID, without trametinib) | Survival rate ([3]; 10 mg/kg PO BID) | Survival rate ([3]; 30 mg/kg PO BID) | Survival time compared to encorafenib ([3]; intracranial melanoma tumors) | Bioluminescence signal (tumor burden) ([3]; relative to vehicle control or encorafenib treated mice) | Status by day 28 ([2]; dabrafenib 100 mg/kg PO QD plus trametinib 0.1 mg/kg PO QD) | Status by day 28 ([2]; single agent, trametinib 0.1 mg/kg PO QD, dabrafenib 100 mg/kg PO QD) | Survival (average) ([3]; 35 mg/kg PO QD, vehicle median survival 18 days)
1 | CCN(C)S(=O)(=O)Nc1ccc(F)c(Oc2ccc3ncn([C@H]4COC5(CCN(C(=O)CC6(O)CCN(c7cc8c(cc7F)c(N7CCC(=O)NC7=O)nn8C)CC6)CC5)C4)c(=O)c3c2)c1C#N [Compound 1, (3R)-3-[6-[2-cyano-3-[[ethyl(methyl)sulfamoyl]amino]-6-fluorophenoxy]-4-oxoquinazolin-3-yl]-8-[2-[1-[3-(2,4-dioxo-1,3-diazinan-1-yl)-5-fluoro-1-methylindazol-6-yl]-4-hydroxypiperidin-4-yl]acetyl]-1-oxa-8-azaspiro[4.5]decane] | 32500 ± 1680 ng/mL | 8500 ± 2970 ng/mL | 429 ± 137 ng/mL | 190 ± 63.2 ng/mL | 1170 ± 352 ng/g | 191 ± 74.4 ng/g | 76 ± 18.3 ng/g | 16.1 ± 6.73 ng/g | one | six | tumor regression | tumor regression | 50% | 87.5% | significant increase in survival time | dramatically reduced the bioluminescence signal | – | – | –
2 | CC(C)(C)c1nc(-c2cccc(NS(=O)(=O)c3c(F)cccc3F)c2F)c(-c2ccnc(N)n2)s1 [dabrafenib] | 5500 ± 1250 ng/mL | 790 ± 157 ng/mL | 189 ± 133 ng/mL | 61.3 ± 53.4 ng/mL | 480 ± 63.7 ng/g | 81.9 ± 40.2 ng/g | 60.1 ng/g | 8.55 ± 4.03 ng/g | one | six | – | – | – | – | – | – | reached tumor burden endpoint | reached tumor burden endpoint | –
3 | COC(=O)N[C@@H](C)CNc1nccc(-c2cn(C(C)C)nc2-c2cc(Cl)cc(NS(C)(=O)=O)c2F)n1 [encorafenib] | 14500 ± 1630 ng/mL | 1890 ± 654 ng/mL | 397 ± 106 ng/mL | 138 ± 112 ng/mL | 289 ± 73 ng/g | 58.8 ± 18.8 ng/g | 64.7 ± 36.4 ng/g | 3.06 ng/g | one | six | – | – | – | – | – | – | – | – | 46 days
